Experimental data published in patent publication US8637679B2, “Process for the isolation of organic compounds useful for the treatment of cancer” (Council of Scientific and Industrial Research, priority 2011, dated 2014).
“Also recorded” adds a separate entry of the source.

Tests used:
Molt-4 = experiment: MTT cell viability assay, Molt-4; type: cell-based, human; settings: Homo sapiens; Molt-4, 48 hrs
Protocol: (§1) Human cervical cancer cell lines (HeLa, ME-180 and SiHa), brain tumor cell lines (U87MG, U373MG, U87MG EGFRvIII, T98G, A172 and LN229), lymphoid leukemia (MOLT-3, MOLT-4, REH and CEMC-7), myloid leukemia (K562), pancreatic cancer (MIAPaCa-2, AsPC-1, Panc-1 and Panc 10.05), lung cancer (A549) and colon cancer (HCT116 and SW480) cell lines from American Type Culture Collection, Manassas, Va., USA were grown in IMDM or RPMI (cell specific) Medium supplemented with 10% fetal bovine serum and 1% antibiotic-antimycotic. Cells were cultured in 37° C. in an atmosphere of 5% CO2.
(§2) Viability of cancer cell lines after treatment as at the indicated times was determined by MTT assay. Briefly, 10,000 cells were plated in triplicate in 96 well plates and incubated for 24 and 48 hours in complete media in presence of varying dose of mahanine (0-50 μM). 100 ug MTT was added in each well. Incubate the plate for 1-4 hours at 37° C. and humidified 5% CO2 atmosphere. Absorbance was recorded at 550 nm with 96 well plate readers.

MIAPaCa-2 [1] = experiment: MTT cell viability assay, MIAPaCa-2; type: cell-based, human; settings: Homo sapiens, MIA PaCa-2; MIAPaCa-2, 48 hrs
Protocol: as §1, §2

A549 = experiment: MTT cell viability assay, A549; type: cell-based, human; settings: Homo sapiens; A549, 48 hrs
Protocol: as §1, §2

NCIH23 = experiment: MTT cell viability assay, NCIH23; type: cell-based, human; settings: Homo sapiens, NCI-H23; NCIH23, 48 hrs
Protocol: as §2

HCT116 = experiment: MTT cell viability assay, HCT116; type: cell-based, human; settings: Homo sapiens, HCT-116; HCT116, 48 hrs
Protocol: as §1, §2

Vero = experiment: MTT cell viability assay, Vero normal cells; type: cell-based, African monkey
WI-38 = experiment: MTT cell viability assay, WI-38 normal cells; type: cell-based, human
Protocol: as §2

HeLa = experiment: 7-AAD flow cytometric apoptosis, HeLa; type: cell-based, human; settings: 25 μM mahanine
Protocol: (§4) U87MG, LN229, HeLa, SiHa and ME180 (1×10^6 cells) cells were cultured in 6-well plates in presence or absence of Mahanine (25 μM) for 24 hrs. Cells were washed in PBS, incubated with 7-Aminoactinomycin D (7-AAD) at 4° C. for 20 min and processed. Data acquisition was done on a FACSCalibur flow cytometer (BD) at excitation wavelength at 488 nm and emission wavelength at 647 nm and analyzed with CellQuestPro software.

ME180 = experiment: 7-AAD flow cytometric apoptosis, ME180; type: cell-based, human; settings: ME180, 25 μM mahanine
Protocol: as §4

Hsp90β = Hsp90β (Homo sapiens, UniProt P08238); experiment: γ-ATP sepharose binding assay, Hsp90β; settings: mahanine at 50 and 100 μM
Sequence of Hsp90β (P08238 whole entry): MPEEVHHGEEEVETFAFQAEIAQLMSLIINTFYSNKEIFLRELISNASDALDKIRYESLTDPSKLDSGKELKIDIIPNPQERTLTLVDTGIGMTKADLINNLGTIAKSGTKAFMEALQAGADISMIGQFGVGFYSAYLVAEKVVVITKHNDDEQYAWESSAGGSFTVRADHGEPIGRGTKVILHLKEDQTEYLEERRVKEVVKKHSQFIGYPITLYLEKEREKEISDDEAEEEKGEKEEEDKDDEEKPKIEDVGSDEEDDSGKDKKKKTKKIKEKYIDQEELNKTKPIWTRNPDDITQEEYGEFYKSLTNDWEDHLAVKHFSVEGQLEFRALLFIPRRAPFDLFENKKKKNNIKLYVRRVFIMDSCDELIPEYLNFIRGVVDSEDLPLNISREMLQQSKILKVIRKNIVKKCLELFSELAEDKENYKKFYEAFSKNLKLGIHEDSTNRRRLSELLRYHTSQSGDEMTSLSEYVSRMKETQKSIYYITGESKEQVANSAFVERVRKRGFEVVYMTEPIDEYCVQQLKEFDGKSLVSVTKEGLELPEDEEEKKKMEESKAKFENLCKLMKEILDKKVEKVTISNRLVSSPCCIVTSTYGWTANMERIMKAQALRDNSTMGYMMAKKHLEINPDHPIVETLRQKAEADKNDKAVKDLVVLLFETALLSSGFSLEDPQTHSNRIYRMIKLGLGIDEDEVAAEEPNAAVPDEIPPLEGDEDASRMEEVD
Protocol: 5 μg of purified Hsp90α and Hsp90β were pre-incubated separately on ice with 200 μL incubation buffer (10 mM Tris-Hcl, 50 mM KCl, 5 mM MgCl2, 2 mM DTT, 20 mM Na2MoO4, 0.01% NP40, pH 7.5) containing mahanine or 17-AAG and incubated for 30 mins on ice. After the incubation, 25 μL pre-equilibrated γ-phosphate ATP sepharose added and again incubated at 37° C. with frequent agitation.
Sepharose subsequently washed and analyzed by SDS-PAGE. Then the blot was probed with anti Hsp90 antibody and developed by ECL.

[2] = tested on: endoplasmic reticulum (ER) stress in MIAPaCa-2 cells; experiment: ER-Tracker Blue-White DPX confocal microscopy; type: cell-based, human; settings: MIAPaCa-2, 18 hrs, 10 μM and 20 μM mahanine
Protocol: MIAPaCa-2 cells were seeded in 8 chambered polystyrene culture slide [BD Falcon, USA] at […] cells per well in RPMI-1640 medium supplemented with 10% FBS. After 24 hrs of seeding, cells were exposed to different concentration of mahanine along with vehicle control. Cells were washed with 1× Hanks Balanced Salt Solution (HBSS) after 18 hrs of incubation and processed for ER staining. Pre-warmed ER-Tracker Blue White DPX (Molecular Probes) was added to the cells at 500 nM working concentration and incubated for 30 mins at 37° C. at 5% CO2 incubator. The loading solution was removed and cells were then washed again in HBSS and samples were analyzed using confocal laser scanning microscope (NICON A1-R, NICON, Japan). Images were recorded using 60×/1.40 oil plan Apo-N objectives at calibrated magnification.

MIAPaCa-2 [3] = experiment: Scratch-wound haptotaxis assay, MIAPaCa-2; type: cell-based, human; settings: MIAPaCa-2, highest treated cells, 6 hrs
Protocol: (§3) Highly and moderately invasive pancreatic cancer cell lines, MIAPaCa-2 and BxPC3 (1×10^6/ml/well) were cultured to >90% confluence in 6 well plate. Consequently, cell were rinsed with PBS and starved in low serum media (2 ml containing 0.5%-0.1% serum in RPMI-1640 for MIAPaCa-2 and BxPC-3) for overnight. On the following day, three separate scratch-wounds were made through the confluent cells. Scratched plate was rinsed with PBS and replaced with serum starved media containing successive doses of mahanine or EtOH for 6 hrs. Picture was taken by using phase contrast at 10× accordingly.

BxPC-3 = experiment: Scratch-wound haptotaxis assay, BxPC-3; type: cell-based, human; settings: BxPC-3, highest treated cells, 6 hrs
Protocol: as §3

Storage stability = type: physicochemical
[4] = Tissue toxicity in K562 xenograft bearing nude mice; type: in vivo

For `CC(C)=CCCC1(C)C=Cc2c(c(C)cc3c2[nH]c2cc(O)ccc23)O1` (stereo not drawn) [Mahanine, mahanine], the IC50 (Molt-4) was 10.7 ± 0.6 µM, the IC50 (MIAPaCa-2 [1]) was 13.9 µM and the IC50 (A549) was 12.8 ± 1.1 µM. It also gave an IC50 (NCIH23) of 7.08 ± 0.1 µM, an IC50 (HCT116) of 13.5 ± 0.8 µM and an IC50 (Vero; Primates, Vero normal cell line, 48 hrs) of over 100 µM. The “sensitivity of Vero cells” value (Vero; proliferating normal cells, in vitro) was “less sensitive”, the IC50 (WI-38; Homo sapiens, WI-38 normal cell line, 48 hrs) was over 65 µM and the “sensitivity of WI-38 cells” value (WI-38; normal human lung fibroblast cells, in vitro) was “less sensitive; also recorded: minimum sensitivity”. For the same compound, the “apoptosis (7-AAD+ve cells)” value (HeLa) was 92.28%, the “apoptosis (7-AAD+ve cells)” value (ME180) was 80.5% and the “effect on ATP binding to purified Hsp90” value (Hsp90β) was “could not reduce”. For the same compound, the “ER-Tracker staining (ER stress)” value [2] was “significantly increased blue staining”, the “wound closure / migratory cells” value (MIAPaCa-2 [3]) was under 5% and the “wound closure / migratory cells” value (BxPC-3) was under 5%. For the same compound, the stable storage time (Storage stability; dissolved in ethanol, −20° C.) was over 6 months, the “stability at room temperature” value (Storage stability; purified compound) was “stable in room temperature” and the “toxicity towards nonspecific tissues (lung, liver, spleen)” value [4] was “no toxic effect”.
